Patent publication US20090208960A1, “METHODS FOR IDENTIFYNG CELLULAR MODULATORS OF DISAGGREGATION ACTIVITY OR AGGREGATION ACTIVITY IN AN ANIMAL” (priority 2006, published 2009)

How the values were obtained:
[1] = tested on: proteasome activity of worm PDS; assay: Proteasome activity of worm PDS with substrate Z-GGL-AMC; type: biochemical, Caenorhabditis elegans; conditions: 10 μM; wild-type worm (N2) PDS 0.5 μg/μl
Description: The synthetic proteasome substrate Z-GGL-AMC was used according to the manufacturer's (Calbiochem) instructions to follow proteasome activity of wild-type worms (strain N2) PDS (0.5 μg/μl).

Description for PC12 cells: Viability of rat adrenal pheochromocytoma (PC12) cells were discerned by the MTT assay (Bucciantini et al., Nature 416: 507, 2002), and normalized to cell survival when incubated in the absence of Aβ1-40.
Using the disaggregation assay and conditions as in B, and 72 h incubation, Aβ1-40 disaggregation samples (500 nM) were added to PC12 cell culture medium for 3 days. Cell viability was assayed by MTT metabolic activity.

## CC[C@H](C)[C@H](NC(=O)[C@H]([C@@H](C)CC)N(C)C(C)=O)C(=O)N[C@H](C(=O)N[C@@H](CC(C)C)C(=O)[C@@]1(C)CO1)[C@@H](C)O [Epoxomicin]
[1]
  proteasome activity of worm PDS: effectively inhibits proteasome activity

## Monomeric Aβ1-40 peptide: Aβ1-40 peptide purchased from Synpep
PC12 cells
  toxicity on PC12 cells: did not exhibit toxicity
